The text below walks through data of US5719154A, “Oxazolidinone antibacterial agents having a six-membrane heteroaromatic ring” (priority 1996, dated 1998).

SMILES strings stand for the structures.

For one assay, the system named is S. aureus UC ® No. 9213. Description: Murine Assay, in vivo antimicrobial activity (ED50 from mortality ratios) against S. aureus UC No. 9213. Also noted: species or system Staphylococcus aureus (infected female mice). The conditions noted are these: oral or subcutaneous, survival six days; for ED50: Staphylococcus aureus, UC9213, 144 h, female mice infected intraperitoneally with S. aureus UC No. 9213, drug one hour and five hours after infection, probit analysis. The procedure:
Antimicrobial activity is tested in vivo using the Murine Assay procedure. Groups of female mice (six mice weighing 18-20 grams each) are injected intraperiteneally with bacteria which are thawed just prior to use and suspended in brain heart infusion with 4% brewers yeast (Staphylococcus aureus) or brain heart infusion (Streptecoccus species). Antibiotic treatment at six dose levels per drug is administered one hour and five hours after infection by either oral intubation or subcutaneous routes. Survival is observed daily for six days. ED50 values based on mortality ratios are calculated using probit analysis. The subject compounds are compared against drug U-100592 as controls. […] The detailed information with respect to the structure and in vivo efficacy evaluations of U-100592 is summarized in Upjohn Oxazolidinone Antibacterial Agents, Posters Presented at the 35th Interscience Conference on Antimicrobial Agents and Chemotherapy, San Francisco, 17-20 September 1995.

For assay [1], the system named is bacteria (Staphylococcus aureus or Streptecoccus species). Conditions: extensively evaluated in this animal model versus vancomycin; cited from earlier work.

In general, ED50 refers to the dose at which the effect has come halfway, by size or by number of responders. For `CC(=O)NC[C@H]1CN(c2ccc(N3CCN(c4ccncn4)CC3)c(F)c2)C(=O)O1` [Example 2], the ED50 in the assay on S. aureus UC ® No. 9213 is 4.4 mg/kg. On to `CC(=O)NC[C@H]1CN(c2ccc(N3CCN(C(=O)CO)CC3)c(F)c2)C(=O)O1` [Example U-100592, reference compound], for which, in assay [1], the potency versus vancomycin result is given as “equipotent to vancomycin”. Also, the “U-100592 ED50” value in the assay with S. aureus UC ® No. 9213 (comparator control for the Example of the same line, female mice, S. aureus UC No. 9213, 8640 min) came out at 8.7 mg/kg. As to `CC(=O)NC[C@H]1CN(c2ccc(N3CCN(c4cccnn4)CC3)c(F)c2)C(=O)O1` [Example 3], the ED50 in the assay with S. aureus UC ® No. 9213 turned out to be 8.8 mg/kg. On the same count and under the same terms, as for `CC(=O)NC[C@H]1CN(c2ccc(N3CCN(c4ncccn4)CC3)c(F)c2)C(=O)O1` [Example 1], the figure is 6.2 mg/kg; as for `CC(=O)NC[C@H]1CN(c2ccc(N3CCN(c4ccc(C)nn4)CC3)c(F)c2)C(=O)O1` [Example 4], 6.3 mg/kg.
